{
  "source": "patent US8785457B2",
  "about": "(Cellzome Limited, priority 2009, dated 2014)",
  "type_in_all_cases": "binding",
  "key": {"[1]": {"target": "T1, PI3K delta (PI3 Kd) (Homo sapiens, UniProt O00329)", "T1 construct": "endogenous in cells; host or cells: Jurkat, clone E6-1 (ATCC TIB-152) cell lysate", "experiment": "kinobeads assay, PI3K delta", "settings": "kinobeads assay, Table 6; read-out: Inhibition values (IC50) PI3Kd", "procedure,_shortened": "(§1)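 IC50 values came from dose-response curves after test compound (1:3 series) competed with an immobilized phenylmorpholin-chromen affinity matrix for kinases in Jurkat lysate at 5 mg/mL protein. Eluted captured DNA-PK and PI3Kδ were measured by specific-antibody dot blot and infrared imaging. Buffer was Tris pH 7.4, NP40, MgCl2, NaCl, vanadate, DTT, NaF.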"}, "[2]": {"target": "T2, DNA-dependent protein kinase (DNA-PK) (Homo sapiens, UniProt P78527)", "T2 construct": "endogenous in cells; host or cells: Jurkat, clone E6-1 (ATCC TIB-152) cell lysate", "T2 sequence (P78527 whole entry)": "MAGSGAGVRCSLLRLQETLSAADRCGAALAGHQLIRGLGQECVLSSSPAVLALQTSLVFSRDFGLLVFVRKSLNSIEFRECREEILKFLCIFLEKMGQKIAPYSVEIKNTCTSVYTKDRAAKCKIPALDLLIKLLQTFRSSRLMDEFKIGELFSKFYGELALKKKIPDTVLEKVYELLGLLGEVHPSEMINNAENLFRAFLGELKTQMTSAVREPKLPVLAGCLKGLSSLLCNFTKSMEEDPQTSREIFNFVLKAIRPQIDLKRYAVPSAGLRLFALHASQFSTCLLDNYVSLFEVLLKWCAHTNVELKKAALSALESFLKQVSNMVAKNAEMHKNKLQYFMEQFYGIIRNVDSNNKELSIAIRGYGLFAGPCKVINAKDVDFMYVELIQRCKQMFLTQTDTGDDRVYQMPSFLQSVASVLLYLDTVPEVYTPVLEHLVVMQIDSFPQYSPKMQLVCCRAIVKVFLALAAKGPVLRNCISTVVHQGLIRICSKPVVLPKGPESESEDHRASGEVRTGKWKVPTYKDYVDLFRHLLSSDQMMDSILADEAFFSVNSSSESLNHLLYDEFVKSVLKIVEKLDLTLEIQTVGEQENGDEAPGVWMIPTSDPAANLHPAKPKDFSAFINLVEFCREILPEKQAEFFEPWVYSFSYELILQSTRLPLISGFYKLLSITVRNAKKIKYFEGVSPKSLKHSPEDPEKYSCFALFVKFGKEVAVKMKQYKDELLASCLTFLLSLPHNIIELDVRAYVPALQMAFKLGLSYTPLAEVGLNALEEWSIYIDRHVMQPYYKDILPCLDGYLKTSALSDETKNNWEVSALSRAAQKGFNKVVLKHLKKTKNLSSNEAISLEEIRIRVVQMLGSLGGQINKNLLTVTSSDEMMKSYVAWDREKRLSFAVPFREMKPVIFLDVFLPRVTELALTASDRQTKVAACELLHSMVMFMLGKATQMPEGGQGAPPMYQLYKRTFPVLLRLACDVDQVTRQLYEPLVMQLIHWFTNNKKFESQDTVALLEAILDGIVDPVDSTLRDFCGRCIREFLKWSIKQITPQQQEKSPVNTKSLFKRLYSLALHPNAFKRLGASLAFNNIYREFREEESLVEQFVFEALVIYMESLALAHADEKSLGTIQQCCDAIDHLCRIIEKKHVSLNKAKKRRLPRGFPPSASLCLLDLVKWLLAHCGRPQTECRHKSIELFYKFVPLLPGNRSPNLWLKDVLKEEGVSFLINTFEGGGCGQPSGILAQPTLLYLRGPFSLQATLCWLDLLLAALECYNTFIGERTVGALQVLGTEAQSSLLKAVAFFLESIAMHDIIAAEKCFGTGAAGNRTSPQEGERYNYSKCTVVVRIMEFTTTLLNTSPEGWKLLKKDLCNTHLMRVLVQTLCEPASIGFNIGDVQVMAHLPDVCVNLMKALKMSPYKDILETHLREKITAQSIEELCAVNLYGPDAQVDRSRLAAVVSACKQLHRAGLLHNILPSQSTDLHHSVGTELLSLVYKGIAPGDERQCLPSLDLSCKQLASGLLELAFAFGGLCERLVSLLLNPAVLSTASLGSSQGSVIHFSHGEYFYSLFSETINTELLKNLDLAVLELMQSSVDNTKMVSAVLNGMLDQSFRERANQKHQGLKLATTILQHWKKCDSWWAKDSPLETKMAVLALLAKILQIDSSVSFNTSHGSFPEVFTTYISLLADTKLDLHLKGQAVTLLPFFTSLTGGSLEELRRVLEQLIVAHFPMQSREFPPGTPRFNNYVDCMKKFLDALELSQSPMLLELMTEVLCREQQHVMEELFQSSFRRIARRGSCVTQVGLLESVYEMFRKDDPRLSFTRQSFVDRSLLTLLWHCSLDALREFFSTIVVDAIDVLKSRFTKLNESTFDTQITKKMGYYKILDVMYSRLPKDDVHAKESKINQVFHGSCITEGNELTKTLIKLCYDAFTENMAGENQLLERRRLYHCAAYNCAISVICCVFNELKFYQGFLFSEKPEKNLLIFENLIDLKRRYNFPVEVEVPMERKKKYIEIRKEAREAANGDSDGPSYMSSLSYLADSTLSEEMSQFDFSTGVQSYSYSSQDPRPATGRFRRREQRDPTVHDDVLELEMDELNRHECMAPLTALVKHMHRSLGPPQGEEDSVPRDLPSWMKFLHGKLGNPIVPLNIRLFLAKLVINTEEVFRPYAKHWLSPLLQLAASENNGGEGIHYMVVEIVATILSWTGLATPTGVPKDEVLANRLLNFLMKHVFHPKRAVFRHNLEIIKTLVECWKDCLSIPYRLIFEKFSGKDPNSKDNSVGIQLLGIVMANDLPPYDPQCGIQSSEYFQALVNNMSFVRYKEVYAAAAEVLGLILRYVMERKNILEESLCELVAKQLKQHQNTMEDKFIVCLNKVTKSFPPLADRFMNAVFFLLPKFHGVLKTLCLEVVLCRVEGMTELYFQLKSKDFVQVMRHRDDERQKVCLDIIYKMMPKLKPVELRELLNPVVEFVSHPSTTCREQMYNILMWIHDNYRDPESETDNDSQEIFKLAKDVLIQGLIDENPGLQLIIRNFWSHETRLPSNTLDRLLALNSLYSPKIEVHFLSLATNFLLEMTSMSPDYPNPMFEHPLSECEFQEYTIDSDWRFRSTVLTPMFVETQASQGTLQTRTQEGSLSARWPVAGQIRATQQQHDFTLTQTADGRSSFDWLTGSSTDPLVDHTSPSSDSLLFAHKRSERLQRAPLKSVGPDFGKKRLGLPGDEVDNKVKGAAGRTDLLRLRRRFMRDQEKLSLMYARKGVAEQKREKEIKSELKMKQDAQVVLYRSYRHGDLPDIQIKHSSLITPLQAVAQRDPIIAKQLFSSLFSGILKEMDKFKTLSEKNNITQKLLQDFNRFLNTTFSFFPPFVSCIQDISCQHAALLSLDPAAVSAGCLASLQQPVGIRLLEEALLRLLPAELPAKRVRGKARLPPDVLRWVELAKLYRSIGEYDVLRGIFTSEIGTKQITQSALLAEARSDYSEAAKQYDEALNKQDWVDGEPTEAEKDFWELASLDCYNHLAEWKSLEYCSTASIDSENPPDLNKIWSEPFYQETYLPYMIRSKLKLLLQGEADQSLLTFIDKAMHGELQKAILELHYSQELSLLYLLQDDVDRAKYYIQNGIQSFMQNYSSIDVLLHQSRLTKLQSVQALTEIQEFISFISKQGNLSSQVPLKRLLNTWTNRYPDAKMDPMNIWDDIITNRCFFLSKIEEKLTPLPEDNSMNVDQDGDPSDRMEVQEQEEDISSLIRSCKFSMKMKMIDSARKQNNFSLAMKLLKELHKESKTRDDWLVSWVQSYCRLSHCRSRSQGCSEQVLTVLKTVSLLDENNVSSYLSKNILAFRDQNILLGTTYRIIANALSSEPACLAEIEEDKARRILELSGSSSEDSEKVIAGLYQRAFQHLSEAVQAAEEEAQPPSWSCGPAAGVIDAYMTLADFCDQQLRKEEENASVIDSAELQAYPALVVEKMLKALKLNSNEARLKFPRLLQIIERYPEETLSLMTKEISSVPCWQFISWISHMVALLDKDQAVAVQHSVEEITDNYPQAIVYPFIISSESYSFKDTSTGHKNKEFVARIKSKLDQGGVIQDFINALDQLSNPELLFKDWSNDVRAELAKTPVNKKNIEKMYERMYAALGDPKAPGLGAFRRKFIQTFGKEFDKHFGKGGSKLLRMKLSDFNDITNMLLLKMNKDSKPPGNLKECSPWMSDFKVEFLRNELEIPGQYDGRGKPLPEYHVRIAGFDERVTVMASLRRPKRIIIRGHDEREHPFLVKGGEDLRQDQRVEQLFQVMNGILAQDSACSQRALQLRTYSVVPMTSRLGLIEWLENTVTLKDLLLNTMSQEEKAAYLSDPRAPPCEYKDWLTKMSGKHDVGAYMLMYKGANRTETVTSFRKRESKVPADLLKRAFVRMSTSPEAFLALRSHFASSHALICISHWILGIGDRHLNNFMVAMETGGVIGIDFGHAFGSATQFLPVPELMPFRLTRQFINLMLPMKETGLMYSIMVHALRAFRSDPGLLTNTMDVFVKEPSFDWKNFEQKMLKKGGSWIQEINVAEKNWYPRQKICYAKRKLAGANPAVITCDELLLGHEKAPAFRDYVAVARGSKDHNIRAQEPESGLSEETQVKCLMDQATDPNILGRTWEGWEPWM", "experiment": "kinobeads assay, DNA-PK", "settings": "kinobeads assay, Table 6; read-out: Inhibition values (IC50) DNAPK", "procedure,_shortened": "as §1"}, "[3]": {"target": "T3, PI3Kalpha (PI3Ka) (Homo sapiens, UniProt P42336)", "T3 construct": "endogenous in cells; host or cells: cell lysate", "experiment": "kinobeads assay, PI3Kalpha", "settings": "kinobeads assay, Table 6", "procedure,_shortened": "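Read-out is multiplexed immunodetection of kinase eluted from phenylmorpholin-chromen ligand beads after their incubation in cell lysate with test compound at various concentrations. Reduced capture reflects competition, and per-kinase dose-response curves yield IC50.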"}},
  "data": [
    {"smiles": "CCNC(=O)Nc1ccc(-c2nc3c(c(N4CCOC[C@@H]4C)n2)CCN(C(=O)OCC)C3)cc1", "note": "[Example 77, (S)-ethyl 2-(4-(3-ethylureido)phenyl)-4-(3-methylmorpholino)-5,6-dihydropyrido[3,4-d]pyrimidine-7(8H)-carboxylate]", "values": [
      {"measurement": "IC50", "setting": "[1]", "value": "> 10", "unit": "µM"},
      {"measurement": "IC50", "setting": "[2]", "value": "> 10", "unit": "µM"},
      {"measurement": "Inhibition values (IC50) PI3Ka", "setting": "[3]", "value": "D (D >10 μM)"}
    ]},
    {"smiles": "CCNC(=O)Nc1ccc(-c2nc3c(c(N4CCOC[C@@H]4C)n2)CCN(C)C3)c(F)c1", "note": "[Example 110, (S)-1-ethyl-3-(3-fluoro-4-(7-methyl-4-(3-methylmorpholino)-5,6,7,8-tetrahydropyrido[3,4-d]pyrimidin-2-yl)phenyl)urea]", "values": [
      {"measurement": "IC50", "setting": "[1]", "value": "> 10", "unit": "µM"},
      {"measurement": "IC50", "setting": "[2]", "value": "> 10", "unit": "µM"},
      {"measurement": "Inhibition values (IC50) PI3Ka", "setting": "[3]", "value": "D (D >10 μM)"}
    ]},
    {"smiles": "C[C@H]1COCCN1c1nc(-c2ccc(NC(=O)NC3CC3)cc2)nc2c1CCN(C(=O)C(C)(C)C)C2", "note": "[Example 64, (S)-1-cyclopropyl-3-(4-(4-(3-methylmorpholino)-7-pivaloyl-5,6,7,8-tetrahydropyrido[3,4-d]pyrimidin-2-yl)phenyl)urea]", "values": [
      {"measurement": "IC50", "setting": "[1]", "value": "> 10", "unit": "µM"},
      {"measurement": "IC50", "setting": "[2]", "value": "> 10", "unit": "µM"},
      {"measurement": "Inhibition values (IC50) PI3Ka", "setting": "[3]", "value": "D (D >10 μM)"}
    ]},
    {"smiles": "CCNC(=O)Nc1ccc(-c2nc3c(c(N4CCOCC4)n2)CN(C)C3)cc1", "note": "[Example 69, 1-Ethyl-3-(4-(6-methyl-4-morpholino-6,7-dihydro-5H-pyrrolo[3,4-d]pyrimidin-2-yl)phenyl)urea]", "values": [
      {"measurement": "IC50", "setting": "[1]", "value": "> 10", "unit": "µM"},
      {"measurement": "IC50", "setting": "[2]", "value": "> 10", "unit": "µM"},
      {"measurement": "IC50", "setting": "[3]; read-out: Inhibition values (IC50) PI3Ka", "value": "1 to 10", "unit": "µM"}
    ]}
  ]
}
